Measurements: ChEMBL document CHEMBL1201862, “PubChem BioAssay data set” (2004)
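Cells were grown in 96-well plates and exposed to each compound for 48 hours at five concentrations; endpoints were interpolated linearly between bracketing concentrations, or set to the highest concentration if not reached. GI50 marks 50% less growth.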 Activity calls are given as the source filed them. Cut-off read from the data, not from the text of the source: active = GI50 up to about 1.1 µM and inactive = higher.

Tests used:
Experiment in all cases: NCI tumour cell line growth inhibition, 48 h
EKVX = system: EKVX
COLO 205 = system: COLO 205
NCI-H522 = system: NCI-H522
U-251 = system: U-251
OVCAR-4 = system: OVCAR-4
K562 = system: K562
HCT-15 = system: HCT-15
RXF 393 = system: RXF 393
IGROV-1 = system: IGROV-1
NCI-H460 = system: NCI-H460
OVCAR-5 = system: OVCAR-5
A549 = system: A549
UACC-62 = system: UACC-62
Malme-3M = system: Malme-3M
A498 = system: A498
SR = system: SR

Structure (SMILES)	GI50 (EKVX)	GI50 (COLO 205)	GI50 (NCI-H522)	GI50 (U-251)	GI50 (OVCAR-4)	GI50 (K562)	GI50 (HCT-15) [µM]	GI50 (RXF 393)	GI50 (IGROV-1)	GI50 (NCI-H460)	GI50 (OVCAR-5)	GI50 (A549)	GI50 (UACC-62)	GI50 (Malme-3M)	GI50 (A498)	GI50 (SR)
CCOC(=O)C1C(=S)NC(=O)C1C#N (centres undefined)	> 100 µM (inactive)	> 100 µM (inactive)	> 100 µM (inactive)	> 100 µM (inactive)	> 100 µM (inactive)	> 100 µM (inactive)	> 100	> 100 µM (inactive)	> 100 µM (inactive)	> 100 µM (inactive)	> 100 µM (inactive)	> 100 µM (inactive)	> 100 µM (inactive)	> 100 µM (inactive)	–	–
CNCCCCN(C)/[N+]([O-])=N\O	> 100 µM (inactive)	> 100 µM (inactive)	> 100 µM (inactive)	> 100 µM (inactive)	> 100 µM (inactive)	> 100 µM (inactive)	> 100	> 100 µM (inactive)	> 100 µM (inactive)	> 100 µM (inactive)	> 100 µM (inactive)	> 100 µM (inactive)	> 100 µM (inactive)	> 100 µM (inactive)	–	–
C/C(=N\NC(N)=S)c1ccc2c(c1)OCO2	13.9 µM (inactive)	> 100 µM (inactive)	32.4 µM (inactive)	> 100 µM (inactive)	–	> 100 µM (inactive)	> 100	> 100 µM (inactive)	> 100 µM (inactive)	> 100 µM (inactive)	> 100 µM (inactive)	> 100 µM (inactive)	> 100 µM (inactive)	> 100 µM (inactive)	> 100 µM (inactive)	> 100 µM (inactive)
COc1nc(NC2OC(COC(C)=O)C(OC(C)=O)C(OC(C)=O)C2OC(C)=O)c(/N=C(\C)C(C)=O)c(=O)n1C (centres undefined)	> 100 µM (inactive)	> 100 µM (inactive)	–	> 100 µM (inactive)	> 100 µM (inactive)	> 100 µM (inactive)	> 100	> 100 µM (inactive)	> 100 µM (inactive)	> 100 µM (inactive)	> 100 µM (inactive)	> 100 µM (inactive)	> 100 µM (inactive)	> 100 µM (inactive)	> 100 µM (inactive)	–
CC(=O)N1CCC2(c3ccccc3N(C(C)=O)C2c2ccc(O)cc2)C1C(=O)O (centres undefined)	> 100 µM (inactive)	> 100 µM (inactive)	> 100 µM (inactive)	> 100 µM (inactive)	–	> 100 µM (inactive)	–	> 100 µM (inactive)	–	–	> 100 µM (inactive)	> 100 µM (inactive)	> 100 µM (inactive)	> 100 µM (inactive)	> 100 µM (inactive)	> 100 µM (inactive)
Fc1ccccc1C1SCc2nc3ccccc3n21 (centres undefined)	37.5 µM (inactive)	77.3 µM (inactive)	28 µM (inactive)	–	–	16.3 µM (inactive)	–	92 µM (inactive)	60.5 µM (inactive)	47.9 µM (inactive)	41.5 µM (inactive)	36.5 µM (inactive)	35 µM (inactive)	55.3 µM (inactive)	9.62 µM (inactive)	38.1 µM (inactive)
O=C1CCC2(c3ccc(Cl)cc3)Nc3ncccc3N12 (centres undefined)	> 100 µM (inactive)	> 100 µM (inactive)	> 100 µM (inactive)	> 100 µM (inactive)	> 100 µM (inactive)	> 100 µM (inactive)	> 100	> 100 µM (inactive)	> 100 µM (inactive)	> 100 µM (inactive)	> 100 µM (inactive)	> 100 µM (inactive)	> 100 µM (inactive)	> 100 µM (inactive)	> 100 µM (inactive)	–
CC(C)(c1cn(Cc2ccccc2)c2ccccc12)c1cn(Cc2ccccc2)c2ccccc12	> 100 µM (inactive)	> 100 µM (inactive)	76.9 µM (inactive)	> 100 µM (inactive)	> 100 µM (inactive)	> 100 µM (inactive)	> 100	–	> 100 µM (inactive)	> 100 µM (inactive)	> 100 µM (inactive)	> 100 µM (inactive)	> 100 µM (inactive)	1.94 µM (inactive)	–	> 100 µM (inactive)
CC(C)(C)OC1=C(OC(C)(C)C)C(O)(c2ccccc2)C1=O (centres undefined)	> 100 µM (inactive)	> 100 µM (inactive)	–	> 100 µM (inactive)	> 100 µM (inactive)	> 100 µM (inactive)	> 100	> 100 µM (inactive)	> 100 µM (inactive)	> 100 µM (inactive)	> 100 µM (inactive)	> 100 µM (inactive)	> 100 µM (inactive)	> 100 µM (inactive)	> 100 µM (inactive)	–
COC(=O)C1=C(C(=O)OC)C2(C3C(SC)=CC(C)(C)CC3S1)N(Cc1ccccc1)CCN2Cc1ccccc1 (centres undefined)	> 100 µM (inactive)	> 100 µM (inactive)	> 100 µM (inactive)	> 100 µM (inactive)	> 100 µM (inactive)	62.7 µM (inactive)	> 100	54.7 µM (inactive)	> 100 µM (inactive)	> 100 µM (inactive)	> 100 µM (inactive)	> 100 µM (inactive)	> 100 µM (inactive)	> 100 µM (inactive)	–	–
